# Reference: the supplement of paper PMC10331698
# ± gives the standard deviation of the averaged measurements.
# Key:
# Assay in all cases: level (log10 ratio to DMSO vehicle control); higher = higher biomarker level / cell amount than vehicle control
# Conditions in all cases: in DMSO
# [1] = compound: C=CC(=O)OCCC(F)(F)C(F)(F)C(F)(F)C(F)(F)F [2-(Perfluorobutyl)ethyl acrylate]
# Method: (§1)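 BioMAP Diversity Plus panel of 12 human primary cell co-culture systems (3C, 4H, LPS, SAg, BT, BF4T, BE3C, CASM3C, HDF3CGF, KF3CT, MyoF, Mphg). Compounds were added 1 h before stimulation and left for 24 h (MyoF 48 h; BT 72 h for soluble read-outs or 6 d for IgG). Biomarkers were read by ELISA, cytotoxicity by SRB, PBMC viability and proliferation by Alamar Blue. Each well value was divided by the mean of 8 DMSO control wells on the same plate and log10 transformed; duplicate blinded samples were tested at 4 concentrations.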
# [2] = compound: CC(C)(C)C(=O)CC(=O)C(F)(F)C(F)(F)C(F)(F)F [(Heptafluorobutanoyl)pivaloylmethane]
# Method: as §1
# [3] = compound: CNS(=O)(=O)C(F)(F)C(F)(F)C(F)(F)C(F)(F)C(F)(F)C(F)(F)C(F)(F)C(F)(F)F [N-Methylperfluorooctanesulfonamide]
# Method: as §1
# [4] = compound: N=C(N)C(F)(F)C(F)(F)C(F)(F)C(F)(F)C(F)(F)C(F)(F)C(F)(F)F [Perfluorooctanamidine]
# Method: as §1
# [5] = compound: O=C(O)C(F)(F)C(F)(F)C(F)(F)C(F)(F)C(F)(F)C(F)(F)C(F)(F)C(F)(F)C(F)(F)C(F)(F)C(F)(F)C(F)(F)C(F)(F)F [Perfluorotetradecanoic acid]
# Method: as §1
# [6] = compound: O=C(O)C(F)(F)C(F)(F)C(F)(F)C(F)(F)C(F)(F)F [Perfluorohexanoic acid]
# Method: as §1
# [7] = compound: OCC(F)(F)C(F)(F)C(F)(F)F [1H,1H-Heptafluorobutanol]
# Method: as §1
Test System,level (log10) ([1]; 6700 nM),level (log10) ([1]; 20000 nM),level (log10) ([1]; 60000 nM),level (log10) ([2]; 6700 nM),level (log10) ([2]; 20000 nM),level (log10) ([2]; 60000 nM),level (log10) ([3]; 6700 nM),level (log10) ([3]; 20000 nM),level (log10) ([3]; 60000 nM),level (log10) ([4]; 6700 nM),level (log10) ([4]; 20000 nM),level (log10) ([4]; 60000 nM),level (log10) ([5]; 6700 nM),level (log10) ([5]; 20000 nM),level (log10) ([6]; 6700 nM),level (log10) ([6]; 20000 nM),level (log10) ([6]; 60000 nM),level (log10) ([7]; 6700 nM),level (log10) ([7]; 20000 nM),level (log10) ([7]; 60000 nM)
lMphg:CD69,-0.0065 ± 0.016,-0.006 ± 0.011,-0.024 ± 0.0057,-0.0145 ± 0.0021,-0.0025 ± 0.0078,0.051 ± 0.011,-0.0715 ± 0.03,-0.0165 ± 0.013,0.061 ± 0.027,-0.048 ± 0.0028,-0.052 ± 0.0085,0.029,-0.02 ± 0.038,-0.007 ± 0.089,0.005 ± 0.035,-0.003 ± 0.0071,-0.017 ± 0.0042,-0.0555 ± 0.066,-0.052 ± 0.098,-0.0465 ± 0.066
lMphg:CD106/VCAM-1,-0.009 ± 0.0099,-0.0035 ± 0.028,-0.0405 ± 0.037,0.0115 ± 0.037,0.001 ± 0.014,-0.009 ± 0.0057,0.015 ± 0.014,0.0515 ± 0.0092,0.0645 ± 0.026,-0.006 ± 0.0028,-0.008 ± 0.0057,-0.08,-0.0325 ± 0.028,-0.017 ± 0.0014,0.0065 ± 0.016,-0.0055 ± 0.011,0.0005 ± 0.018,-0.001,0.008 ± 0.0028,0.01 ± 0.0085
CASM3C:Proliferation,-0.0375 ± 0.06,-0.0315 ± 0.069,-0.123 ± 0.084,-0.032 ± 0.03,0.0195 ± 0.0092,-0.017 ± 0.037,0.015 ± 0.031,-0.006 ± 0.035,-0.0605 ± 0.094,0.0185 ± 0.0078,0.0085 ± 0.0035,-0.062,0.0075 ± 0.028,-0.018 ± 0.0057,-0.001 ± 0.018,-0.065,-0.0055 ± 0.015,-0.005 ± 0.014,0.0045 ± 0.025,0.024 ± 0.055
BE3C:Keratin 8/18,-0.0135 ± 0.025,0 ± 0.016,0.006 ± 0.013,0.009 ± 0.0014,0.009 ± 0.0057,0.001 ± 0.025,-0.0025 ± 0.012,-0.0135 ± 0.0078,-0.0055 ± 0.023,-0.0165 ± 0.0021,-0.014 ± 0.0057,0.007,-0.004 ± 0.03,-0.011 ± 0.045,-0.017 ± 0.0057,-0.0125 ± 0.0035,-0.0175 ± 0.021,-0.023 ± 0.041,0.0035 ± 0.019,-0.009 ± 0.037
3C:CD54/ICAM-1,0.0055 ± 0.0021,-0.01 ± 0.0042,-0.01 ± 0.011,-0.0015 ± 0.019,-0.0095 ± 0.005,0.03 ± 0.011,-0.0265 ± 0.022,0.103 ± 0.026,0.043 ± 0.0014,-0.0065 ± 0.0035,-0.038 ± 0.013,-0.049,-0.0005 ± 0.0078,-0.0045 ± 0.013,0.005 ± 0.013,-0.0045 ± 0.016,-0.0005 ± 0.019,0.0095 ± 0.0064,0.003 ± 0.0085,0.0075 ± 0.0064
lMphg:CD40,-0.002,-0.0165 ± 0.0064,-0.0255 ± 0.0064,-0.0075 ± 0.0021,0.004 ± 0.034,-0.017 ± 0.0014,-0.054 ± 0.042,-0.0365 ± 0.021,0.0255 ± 0.063,-0.016 ± 0.023,-0.0145 ± 0.005,-0.046,-0.0405 ± 0.036,-0.031 ± 0.014,0.0105 ± 0.0078,0.016 ± 0.02,-0.008 ± 0.0028,0.0045 ± 0.025,-0.0125 ± 0.059,-0.0105 ± 0.029
lMphg:SRB,0.0085 ± 0.0078,-0.0095 ± 0.0064,-0.0155 ± 0.012,-0.001 ± 0.0057,-0.006 ± 0.0028,0.008 ± 0.016,-0.021 ± 0.021,-0.0155 ± 0.00071,-0.0265 ± 0.00071,-0.006 ± 0.016,0.004 ± 0.016,0.001,-0.0035 ± 0.0035,-0.0105 ± 0.0078,-0.019 ± 0.0085,-0.0175 ± 0.0064,-0.006 ± 0.0085,-0.0045 ± 0.0064,-0.002 ± 0.018,-0.005 ± 0.0014
HDF3CGF:CD106/VCAM-1,-0.068 ± 0.0028,-0.203 ± 0.049,-0.317 ± 0.041,0.0085 ± 0.023,0.032 ± 0.0071,-0.0925 ± 0.054,-0.164 ± 0.017,-0.176 ± 0.029,-0.154 ± 0.0021,-0.0215 ± 0.013,-0.132 ± 0.018,-0.214,-0.021 ± 0.0099,-0.122 ± 0.012,-0.043 ± 0.04,-0.008 ± 0.023,-0.0145 ± 0.086,-0.033 ± 0.048,-0.003 ± 0.079,-0.0055 ± 0.09
HDF3CGF:SRB,-0.0125 ± 0.057,-0.092 ± 0.073,-0.0805 ± 0.06,0.0015 ± 0.0021,0.0085 ± 0.013,0.0345 ± 0.032,-0.032 ± 0.03,0.005 ± 0.023,-0.008 ± 0.014,-0.01 ± 0.017,0.0155 ± 0.0035,-0.048,0.027 ± 0.014,0.0205 ± 0.069,0.0135 ± 0.013,0.0305 ± 0.022,-0.0055 ± 0.0092,-0.047 ± 0.067,0.0415 ± 0.011,0.025 ± 0.033
KF3CT:TIMP-2,0.0145 ± 0.0021,-0.0175 ± 0.0078,-0.009 ± 0.023,0.001 ± 0.021,0.002 ± 0.014,-0.015 ± 0.0014,0.0185 ± 0.0035,0.022 ± 0.024,0.008 ± 0.0028,0.01 ± 0.0014,0 ± 0.02,0.035,0.0455 ± 0.032,0.0065 ± 0.012,0.004 ± 0.016,-0.0125 ± 0.0035,-0.0125 ± 0.0078,0.0155 ± 0.011,0.002 ± 0.0057,-0.007 ± 0.0042
lMphg:CCL2/MCP-1,-0.0335 ± 0.0078,-0.0445 ± 0.0078,-0.012 ± 0.04,-0.0135 ± 0.025,-0.018 ± 0.0071,-0.0255 ± 0.021,-0.034 ± 0.0099,-0.061 ± 0.033,-0.0465 ± 0.04,-0.03 ± 0.016,-0.006 ± 0.0085,0.021,-0.013 ± 0.014,-0.004 ± 0.0099,-0.0065 ± 0.028,-0.021 ± 0.0099,-0.014 ± 0.041,-0.01 ± 0.0042,-0.0075 ± 0.015,-0.0295 ± 0.012
MyoF:alpha-SM Actin,-0.0075 ± 0.0078,-0.0325 ± 0.00071,-0.0665 ± 0.00071,-0.006 ± 0.05,-0.002 ± 0.034,-0.0215 ± 0.0021,-0.021 ± 0.068,-0.008 ± 0.042,0.024 ± 0.059,0.0015 ± 0.054,-0.009 ± 0.042,0.066,-0.008,-0.032 ± 0.0085,-0.021 ± 0.016,0.011 ± 0.0099,0.013 ± 0.037,0.0105 ± 0.0064,-0.0045 ± 0.0078,-0.004 ± 0.02
CASM3C:CCL2/MCP-1,-0.001 ± 0.0099,-0.0085 ± 0.0064,-0.0035 ± 0.0064,-0.008 ± 0.017,-0.0025 ± 0.021,-0.0075 ± 0.0092,0.0095 ± 0.022,0.0295 ± 0.012,0.0645 ± 0.039,0.008 ± 0.024,0.011 ± 0.034,0.085,-0.0615 ± 0.036,-0.03 ± 0.021,-0.014 ± 0.0042,0.0025 ± 0.021,0.008 ± 0.027,0.006 ± 0.0099,0.006 ± 0.0057,0.0095 ± 0.026
lMphg:SRB-Mphg,0.012 ± 0.011,0.0075 ± 0.016,-0.006 ± 0.021,-0.0025 ± 0.0078,-0.0125 ± 0.012,0.0035 ± 0.019,0.0005 ± 0.0035,0 ± 0.0042,-0.018 ± 0.02,0.0145 ± 0.011,0.009 ± 0.014,0.007,0.0035 ± 0.011,0.006 ± 0.031,-0.0005 ± 0.011,0.003 ± 0.0071,0.0115 ± 0.0035,0.005 ± 0.0028,-0.009 ± 0.0042,0.006 ± 0.0099
